Tested on: human serum albumin
Test: Albumin binding, ultrafiltration assay in human blood plasma
Assay type: in vitro ADME
Protocol: The logD values, cell uptake and internalization as well as PSMA-binding affinities (KD values) of [^225Ac]Ac-SibuDAB and [^225Ac]Ac-PSMA-617 (~50 kBq/nmol) were determined according to previously reported protocols (Supplementary Material: Sections S3–S5). Relative albumin-binding affinities were determined using an ultrafiltration assay according to an adapted version of a recently published protocol (Supplementary Material: Section S6).
Table S1. PSMA-binding affinity expressed as KD values determined for SibuDAB and PSMA-617 labeled with actinium-225 or lutetium-177.
Radioligand KD Value [nM] 95% Confidence interval n […]
Purpose: The affinity of [225Ac]Ac-SibuDAB to serum albumin in mouse and human blood plasma was assessed and compared to that of [177Lu]Lu-SibuDAB to determine the impact of the radionuclide on the albumin-binding properties of SibuDAB.
Methods: Relative albumin-binding affinities were determined using an ultrafiltra-tion assay according to a slightly adapted version of a published protocol. The concen-tration of mouse serum albumin (MSA) and human serum albumin (HSA) in samples of mouse and human plasma, respectively, was determined using a DRI-CHEM Analyzer (FUJIFILM, 4000i). […] The activity in the retained protein fraction (A bound), in the filtrate (Afiltrate) and in the filter unit (Afilter) were measured separately in a γ-counter (Perkin Elmer Wallac Wizard 1480). […]

## CC(C)Cc1ccc(C(C)C(=O)NC(CCN)C(=O)NCCCCC(NC(=O)CN2CCN(CC(=O)[O-])CCN(CC(=O)[O-])CCN(CC(=O)[O-])CC2)C(=O)NCC2CCC(C(=O)NC(Cc3ccc4ccccc4c3)C(=O)NCCCCC(NC(=O)NC(CCC(=O)O)C(=O)O)C(=O)O)CC2)cc1.[225Ac+3] (stereo not shown) [[^225Ac]Ac-SibuDAB]
  relative albumin-binding affinity, higher than for [177Lu]Lu-SibuDAB: 1.4 fold
